This is an account of results in US9540355B2, “Irciniastatin analogues” (priority 2013, dated 2017).

The test system of one data set is A2058. The data set can be described thus: Cell growth inhibition assay (CellTiter-Glo). The settings on record: for IC50: Homo sapiens, 96 h, 4 days incubation; for Selectivity vs. IMR-90, A2058: ratio IC50[IMR-90]:IC50[tumor cell line]. The class given is cell-based, human. The procedure:
(§1) Cell Culture and Cell Growth Inhibition Assay.
(§2) The chosen cell lines are all human cancer cell lines except for the 4T1 murine breast cancer line, representing a wide variety of cancer types including breast (MDA-MB-453), kidney (A498), lung (H1975), pancreatic (PANC-1) and endometrial cancer (AN3CA, HEC-1A, and RL95-2), glioblastoma (U251 and U-87MG), melanoma (A2058 and LOXIMVI) and uterine sarcoma (MES-SA). All the cancer cell lines can be obtained from the American Type Culture Collection (ATCC, Manassas, Va., USA) with the exception of U251 which can be provided by the National Cancer Institute Tumor Repository (Frederick, Md.) and is cultured in the standard tissue culture media appropriate for each cell line. All the culture media are supplemented with 10% fetal bovine serum (FBS), 100 I.U./mL penicillin and 100 μg/mL streptomycin. For the cell growth inhibition assay, the cells are seeded in 96-well tissue culture plates at 500-3000 cells/well (seeding density empirically adjusted for each cell line based on growth rate optimization). The cells are allowed to attach for a minimum of 5 h prior to compound administration. The cells are incubated for a period of 4 days after compound addition. Following the incubation period, CellTiter-Glo reagent (Promega, Madison, Wis., USA) is added to all the wells to assess cell proliferation/viability. Luminescence is measured using an Envision microplate reader (Perkin Elmer, Waltham, Mass., USA). The IC50 values were calculated as the concentration which inhibited cell growth to 50% of DMSO control treated cell populations.
(In general: Cellular ATP, detected with luciferase, serves as a proxy for viable cell number.)

The test system of another data set is H522-T1. Nature of the data set: Cell growth inhibition assay (CellTiter-Glo). The settings on record: for IC50: Homo sapiens, 96 h, 4 days incubation; for Selectivity vs. IMR-90, H522-T1: ratio IC50[IMR-90]:IC50[tumor cell line]. The class given is cell-based, human. The procedure:
as §1, §2

Data set [1] has as its system IMR-90 human fibroblast cells. Nature of the data set: IMR-90 cytotoxicity assay. The class given is cell-based. The settings on record: IMR-90, 72 h, read-out: IC50 (nM) Quiescent IMP-90. The source says: IMR-90 Cytotoxicity Assay.
To evaluate the effect of compounds of the invention on non-proliferating normal cells, an in vitro cytotoxicity assay developed to distinguish between true antiproliferative activity and general cellular cytotoxicity unrelated to proliferation was used. Rudolph-Owen L A, Salvato K, Cheng C, Wu J, Towle M J and Littlefield B A: A 96-well plate cell-based assay to quantify undesired cytotoxic effects against quiescent non-dividing cells. Proc Amer Assoc Cancer Res 45: 264-265, 2004. In brief, IMR-90 human fibroblast cells, obtained from ATCC, were grown for 4 days to confluency in MEM containing 10% FBS and supplemented with L-glutamine, penicillin/streptomycin. After washing, the medium was replaced with complete MEM containing 0.1% FBS and the cells were cultured for 3 additional days to achieve complete quiescence. A compound of the invention or vehicle control was then added in the continued presence of 0.1% FBS, followed by incubation for 3 days at 37° C. Cell viability was assessed by the measurement of cellular ATPlevels using CellTiter-Glo reagent (Promega).

For data set [2], the system named is SK-MEL-S. The settings on record: cell-based assay, read-out: translation inhibition (EC50 nM) cell-based assay SK-MEL-S; cited from earlier work.
Data set [3] deals with Hela. The settings on record: read-out: cytotoxicity (IC50 nM) Hela, CellTiter-Glo, mean ± standard deviation; cited from earlier work.
A further data set deals with translation. Particulars: in vitro assay; mean ± standard deviation; read-out: translation inhibition (EC50 nM) in vitro assay; cited from earlier work.
For data set [4], the system named is Hela. The settings on record: cell-based assay, read-out: translation inhibition (EC50 nM) cell-based assay Hela; cited from earlier work.
Data set [5] concerns SK-MEL-S. Particulars: read-out: cytotoxicity (IC50 nM) SK-MEL-S, CellTiter-Glo, mean ± standard deviation; cited from earlier work.
Another data set relates to HCT-116. The data set can be described thus: Cell growth inhibition assay (CellTiter-Glo). The class given is cell-based, human. Particulars: for IC50: Homo sapiens, 96 h, 4 days incubation; for Selectivity vs. IMR-90, HCT-116: ratio IC50[IMR-90]:IC50[tumor cell line]. The procedure:
as §1, §2

The test system of the next data set is NCI-H460. Particulars: lung NCI-H460; cited from earlier work.
For the next data set, the system named is KM20L2. Particulars: colon KM20L2; cited from earlier work.
The next data set relates to BXPC-3. The settings on record: pancreas BXPC-3; cited from earlier work.
The next data set has as its system MCF-7. Particulars: breast MCF-7; cited from earlier work.
Data set [6] has as its system P388 murine lymphocytic leukemia cell line. The settings on record: cited from earlier work.
The next data set deals with DU-145. The settings on record: prostate DU-145; cited from earlier work.
The subject of the next data set is SF-268. Particulars: CNS SF-268; cited from earlier work.

Broadly, the IC50 is the point on the concentration scale where inhibition reaches its midpoint. Turning to `C=C(C)C[C@H](OC)[C@H](O)C(=O)N[C@@H](OC)[C@@H]1C/C(=N/OC)C(C)(C)[C@@H](C[C@H](O)[C@@H](C)[C@H]2Cc3c(C)c(O)cc(O)c3C(=O)O2)O1` (stereo in doubt) [C(11)-O-Methyloxime-Irciniastatin B], the IC50 was 0.5 nM in the data set with A2058, 0.8 nM in the data set on H522-T1 and 46 nM in [1]. Further, in the data set on A2058, the “Selectivity vs. IMR-90, A2058” value was 92. In addition, the “Selectivity vs. IMR-90, H522-T1” value with H522-T1 worked out at 58.
Usually EC50 stands for the concentration needed to bring the measured effect to its halfway point. Take `C=C(C)C[C@H](OC)[C@H](O)C(=O)N[C@@H](OC)[C@@H]1C[C@@H](O)C(C)(C)[C@@H](C[C@H](O)[C@@H](C)C2Cc3c(C)c(O)cc(O)c3C(=O)O2)O1` (stereo partly shown) [1a]: the EC50 in the data set on SK-MEL-S [2] is 33 ± 10 nM; with translation, 28 ± 7 nM; in the data set with Hela [4], 22 ± 1.4 nM. For the same compound, the half-maximal inhibitory concentration (IC50) with Hela [3] was 0.64 ± 0.14 nM; in the data set on SK-MEL-S [5] it was 0.27 ± 0.04 nM.
As to `C=C(C)C[C@H](OC)[C@H](O)C(=O)N[C@@H](OC)[C@@H]1CC(=C)C(C)(C)[C@@H](C[C@H](O)[C@@H](C)[C@H]2Cc3c(C)c(O)cc(O)c3C(=O)O2)O1` [C(11)-Exomethylene-Irciniastatin B], the IC50 was 1 nM in the data set on HCT-116, 0.7 nM with A2058, 1.6 nM with H522-T1 and 49 nM in [1]. The “Selectivity vs. IMR-90, HCT-116” value with HCT-116 amounted to 49. The “Selectivity vs. IMR-90, A2058” value in the data set with A2058 is on record as 70. The “Selectivity vs. IMR-90, H522-T1” value in the data set on H522-T1 was 31.
Take `C=C(C)C[C@H](OC)[C@H](O)C(=O)N[C@@H](OC)[C@@H]1C[C@@H](OC(C)=O)C(C)(C)[C@@H](C[C@H](O)[C@@H](C)[C@H]2Cc3c(C)c(O)cc(O)c3C(=O)O2)O1` [C(11)-OAc-Irciniastatin A]: the IC50 in the data set with HCT-116 came to 2 nM; in the data set with A2058 it was 0.4 nM; in the data set on H522-T1, 0.7 nM; in [1], 27 nM. Further, the “Selectivity vs. IMR-90, HCT-116” value in the data set on HCT-116 is given as 14. Moreover, the “Selectivity vs. IMR-90, A2058” value in the data set with A2058 turned out to be 68. Also, in the data set with H522-T1, the “Selectivity vs. IMR-90, H522-T1” value was determined as 39.
Consider `C=C(C)C[C@H](OC)[C@H](O)C(=O)N[C@@H](OC)[C@@H]1C[C@@H](OC(=O)c2ccccc2)C(C)(C)[C@@H](C[C@H](O)[C@@H](C)[C@H]2Cc3c(C)c(O)cc(O)c3C(=O)O2)O1` [C(11)-Obz-Irciniastatin A, C(11)-OBz-Irciniastatin A], for which the IC50 in the data set on A2058 amounted to 2.7 nM; with H522-T1, 5.4 nM; in data set [1], 81 nM. Also, the “Selectivity vs. IMR-90, A2058” value with A2058 came to 30. The “Selectivity vs. IMR-90, H522-T1” value with H522-T1 worked out at 15.
For `C=C(C)C[C@H](OC)[C@H](O)C(=O)N[C@@H](OC)[C@@H]1CC(=O)C(C)(C)[C@@H](C[C@H](O)[C@@H](C)[C@H]2Cc3c(C)c(O)cc(O)c3C(=O)O2)O1` [Irciniastatin B, (−)-Irciniastatin B], the “Growth Inhibition of Cancer Cell Lines (GI50)” value was 1.2 ng/mL with NCI-H460; 2.1 ng/mL with KM20L2; 0.73 ng/mL in the data set on BXPC-3; 0.5 ng/mL in the data set with MCF-7; 6 ng/mL in data set [6]; 1.6 ng/mL in the data set with DU-145. Moreover, in the data set on SF-268, the “Growth Inhibition of Cancer Cell Lines (GI50)” value was 0.66 ng/mL. Also, the IC50 in the data set with HCT-116 is 3 nM; in the data set with A2058, 0.5 nM; in the data set on H522-T1, 0.8 nM; in data set [1], 57 nM. The “Selectivity vs. IMR-90, HCT-116” value in the data set on HCT-116 is listed as 19. Moreover, the “Selectivity vs. IMR-90, A2058” value in the data set with A2058 was 114. The “Selectivity vs. IMR-90, H522-T1” value with H522-T1 worked out at 71.
As to `C=C(C)C[C@@H](OC)[C@H](O)C(=O)N[C@@H](OC)[C@@H]1C[C@@H](O)C(C)(C)[C@@H](C[C@H](O)[C@@H](C)C2Cc3c(C)c(O)cc(O)c3C(=O)O2)O1` (stereo partly shown) [compound 3], the EC50 was 495 nM in the data set with SK-MEL-S [2], 346 ± 64 nM in the data set on translation and 4950 ± 4870 nM in the data set on Hela [4]. The IC50 in the data set with Hela [3] is 614 ± 267 nM; with SK-MEL-S [5], 352 ± 12.1 nM.
As for `C=C(C)C[C@H](OC)[C@H](O)C(=O)N[C@H](OC)[C@@H]1C[C@@H](O)C(C)(C)[C@@H](C[C@H](O)[C@@H](C)C2Cc3c(C)c(O)cc(O)c3C(=O)O2)O1` (stereo partly shown) [compound 4], the EC50 with SK-MEL-S [2] is 843 nM; in the data set on translation, 318 ± 182 nM; in the data set with Hela [4] it was 2200 ± 1410 nM. The IC50 was over 1000 nM in the data set on Hela [3] and 763 ± 70 nM in the data set with SK-MEL-S [5].
On to `C=C(C)C[C@H](OC)[C@H](O)C(=O)N[C@@H](OC)[C@@H]1C[C@@H](O)C(C)(C)[C@@H](C[C@H](O)COC)O1` [compound 5], for which the EC50 is 578 nM in the data set with SK-MEL-S [2], 641 ± 262 nM in the data set on translation and 1650 ± 1060 nM in the data set on Hela [4]. Also, the IC50 in the data set with Hela [3] and in the data set with SK-MEL-S [5] was over 1000 nM in each case.
Consider `C=C(C)C[C@H](OC)[C@H](O)C(=O)N[C@H](OC)[C@@H]1C[C@@H](O)C(C)(C)[C@@H](C[C@H](O)COC)O1` [compound 6], for which the EC50 with SK-MEL-S [2], in the data set with translation and in the data set with Hela [4] was over 10000 nM in each case. The IC50 in the data set on Hela [3] and in the data set on SK-MEL-S [5] was over 1000 nM throughout.
For the compound `Cc1c(O)cc(O)c2c1CC([C@H](C)[C@@H](O)C[C@H]1O[C@H](C(N)=O)C[C@@H](O)C1(C)C)OC2=O` (stereo partly shown) [compound 7], the EC50 in the data set on SK-MEL-S [2], in the data set with translation and in the data set with Hela [4] was over 10000 nM in each case. Besides, the IC50 in the data set on Hela [3] and with SK-MEL-S [5] was over 1000 nM each time.
Consider `C=C1C[C@](OC)([C@H](O)C(=O)NC2OCO[C@H]3[C@@H]2O[C@H](C[C@H](O)CO)C(C)(C)[C@@H]3OC)O[C@H](C)[C@@H]1C` (stereo partly shown) [compound 8], for which the EC50 with SK-MEL-S [2] is 64 nM; with translation, 238 ± 44 nM; with Hela [4], 59 ± 32 nM. In addition, the results for the IC50 in the data set with Hela [3] and with SK-MEL-S [5] were 2.52 ± 1.39 nM and 3.79 ± 0.04 nM, respectively.
Consider `C[C@@H]1C[C@@H]([C@H](O)CC2CC(=O)NC(=O)C2)C(=O)[C@@H](C)C1` [cycloheximide], for which the EC50 in the data set on SK-MEL-S [2] was 2670 nM; with translation it was 3150 ± 2350 nM; in the data set with Hela [4], 3320 ± 434 nM. Moreover, the IC50 in the data set with Hela [3] was 2290 ± 1520 nM; in the data set on SK-MEL-S [5] it was 3130 ± 764 nM.
Turning to `C=C(C)C[C@H](OC)[C@H](O)C(=O)N[C@@H](OC)[C@@H]1C[C@H](O)C(C)(C)[C@@H](C[C@H](O)[C@@H](C)[C@H]2Cc3c(C)c(O)cc(O)c3C(=O)O2)O1` [epi-C(11)-Irciniastatin A], the IC50 in the data set with HCT-116 was found to be 3 nM; in the data set on A2058 it was 0.4 nM; with H522-T1, 0.9 nM; in data set [1], 34 nM. Besides, in the data set on HCT-116, the “Selectivity vs. IMR-90, HCT-116” value amounted to 11. Further, in the data set with A2058, the “Selectivity vs. IMR-90, A2058” value was 85. In addition, the “Selectivity vs. IMR-90, H522-T1” value in the data set on H522-T1 is 38.
